Test results from article PMC8280143, “A novel dephosphorylation targeting chimera selectively promoting tau removal in tauopathies” (Signal Transduction and Targeted Therapy, 2021).
No end group written: not given here. *: point of attachment. FITC = O=C1OC2(c3ccc(O)cc3Oc3cc(O)ccc32)c2ccc(NC(=S)*)cc21

Key:
[1] = tested on: inositol monophosphatase; details: cited from earlier work
Description: (§1) By contrast, small-molecular kinase inhibitors or phosphatase enhancers generally lack specificity. […] This might bring unacceptable side-effects in the clinic. Importantly, the principle of DEPTAC can be used in future studies to design alternative chimeras specifically targeting many other types of post-tr ...

[2] = tested on: tau; details: cited from earlier work
Description: as §1

[3] = tested on: glycogen synthase kinase-3; details: cited from earlier work
Description: as §1

[4] = tested on: human tau; assay: Fluorescence polarization binding assay, tau; details: 0.1 μM FITC-labeled DEPTAC; serial dilutions of tau; 20 mM Tris-HCl, 150 mM NaCl, 0.5 mM DTT, pH 7.4; 37 °C, 30 min
Protocol: (§2) Purified human tau and PP2A-Bα (PPP2R1A) were obtained from AtaGenix (Wuhan, China), and concentrated using ultrafiltration tubes (Beyotime). In basic binding assays, tau or PP2A-Bα was aliquoted into serial dilutions with a buffer containing 20 mM Tris-HCl, 150 mM NaCl, and 0.5 mM 1,4-Dithiothreitol (pH 7.4), and incubated with 0.1 μM FITC-labeled DEPTAC, FITC-labeled control peptide and FITC (9:1 vol/vol), respectively, in a black 384-well plates (Corning) under 37 °C for 30 min. In competition binding assays, a mixture of 2.5 μM tau or PP2A-Bα and 0.1 μM FITC-labeled DEPTAC were incubated with increasing amounts of unlabeled-DEPTAC under 37 °C for 30 min. Fluorescence intensity was measured by a Biotek Synergy 2 microplate reader with the wavelengths of 480 nm (60) (Ex)/560 nm (40) (Em). The polarization measurements were corrected for background contributions to the measured intensity by subtracting the parallel and perpendicular intensity readings by the vehicle-only wells from the intensity readings for each data point. Fluorescence polarization (P) was calculated by the formula P = (I║ − I┴) / (I║ + I┴), where I║ was the intensity of emitted light polarized parallel to the excitation light, and I┴ was the intensity of emitted light polarized perpendicular to the excitation light.

[5] = tested on: PP2A-Bα (PPP2R1A); assay: Fluorescence polarization binding assay, PP2A-Bα; design: species or system human; details: 0.1 μM FITC-labeled DEPTAC; serial dilutions of PP2A-Bα; 20 mM Tris-HCl, 150 mM NaCl, 0.5 mM DTT, pH 7.4; 37 °C, 30 min
Protocol: as §2

| FITC-DEPTAC fluorescence polarization with increased amount of tau [4] | FITC-DEPTAC fluorescence polarization with increased amount of PP2A-Bα [5] | Compound | action on inositol monophosphatase [1] | suppression of tau hyperphosphorylation [2] | action on glycogen synthase kinase-3 [3] |
| --- | --- | --- | --- | --- | --- |
|  |  | [Li] [lithium] | acts on other targets | suppress tau hyperphosphorylation | acts on other targets |
| sigmoidal increases | sigmoidal increases | FITC-DEPTAC: For tracing the chimera, a fluorescein FITC was conjugated at the K18 residue (YQQYQDATADEQGGSGSK(FITC)KVAVVRTPPKSPRRRRRRRR) |  |  |  |
